# Results taken from US20080194482A1, “Selective Apac2 Receptor Peptide Agonists” (priority 2005, published 2008).
# Square brackets hold non-standard residues; d marks the D form. Peptide text beside a SMILES is read from it. * marks the point of attachment. Orn = NCCC[C@H](N)C(=O)O; Hexanoyl = CCCCCC(=O)*; Aib = CC(C)(N)C(=O)O
# Assays:
# human VPAC2 [1] = target: T1, human VPAC2 (Homo sapiens, UniProt P41587); assay: Filter binding assay, 125I-labeled VIP tracer, VPAC2 membranes; settings: read-out: Human VPAC2 Receptor Binding (IC50; nM)
# T1 construct: expressed in transfected cells
# T1 sequence (P41587 24-438): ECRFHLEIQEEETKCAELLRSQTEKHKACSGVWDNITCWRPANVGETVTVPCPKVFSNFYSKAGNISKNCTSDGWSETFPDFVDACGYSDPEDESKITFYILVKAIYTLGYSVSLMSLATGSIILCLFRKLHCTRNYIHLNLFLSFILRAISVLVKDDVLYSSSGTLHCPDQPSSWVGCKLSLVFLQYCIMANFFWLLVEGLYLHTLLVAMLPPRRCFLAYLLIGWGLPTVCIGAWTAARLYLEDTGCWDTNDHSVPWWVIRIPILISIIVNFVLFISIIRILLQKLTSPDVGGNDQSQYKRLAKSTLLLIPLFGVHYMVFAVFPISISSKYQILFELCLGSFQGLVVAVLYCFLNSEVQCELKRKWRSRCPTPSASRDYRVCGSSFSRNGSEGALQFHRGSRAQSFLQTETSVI
# Experimental: (§1) For this assay, the solutions and equipment include:
# (§2) Presoak solution: 0.5% Polyethyleneamine in Aqua dest
# (§3) Buffer for flushing filter plates: 25 mM HEPES pH 7.4
# (§4) Blocking buffer: 25 mM HEPES pH 7.4; 0.2% protease free BSA
# (§5) Assay buffer: 25 mM HEPES pH 7.4; 0.5% protease free BSA
# (§6) Dilution and assay plate: PS-Microplate, U form
# (§7) Filtration Plate: Multiscreen FB Opaque Plate; 1.0 μM Type B Glasfiber filter
# (§8) In order to prepare the filter plates, the presoak solution is aspirated by vacuum filtration. The plates are flushed twice with 200 μL flush buffer. 200 μL blocking buffer is added to the filter plate. The filter plate is then incubated with 200 μL presoak solution for 1 hour at room temperature.
# (§9) The assay plate is filled with 25 μL assay buffer, 25 μL membranes (2.5 μg) suspended in assay buffer, 25 μL compound (agonist) in assay buffer, and 25 μL tracer (about 40000 cpm) in assay buffer. The filled plate is incubated for 1 hour with shaking.
# (§10) The transfer from assay plate to filter plate is conducted. The blocking buffer is aspirated by vacuum filtration and washed two times with flush buffer. 90 μL is transferred from the assay plate to the filter plate. The 90 μL transferred from assay plate is aspirated and washed three times with 200 μL flush buffer. The plastic support is removed. It is dried for 1 hour at 60° C. 30 μL Microscint is added. The count is performed.
# human VPAC1 = target: T2, human VPAC1 (Homo sapiens, UniProt P32241); assay: Filter binding assay, 125I-labeled VIP tracer, VPAC1 membranes; settings: read-out: Human VPAC1 Receptor Binding (IC50; nM)
# T2 construct: expressed in transfected cells
# T2 sequence (P32241 31-457): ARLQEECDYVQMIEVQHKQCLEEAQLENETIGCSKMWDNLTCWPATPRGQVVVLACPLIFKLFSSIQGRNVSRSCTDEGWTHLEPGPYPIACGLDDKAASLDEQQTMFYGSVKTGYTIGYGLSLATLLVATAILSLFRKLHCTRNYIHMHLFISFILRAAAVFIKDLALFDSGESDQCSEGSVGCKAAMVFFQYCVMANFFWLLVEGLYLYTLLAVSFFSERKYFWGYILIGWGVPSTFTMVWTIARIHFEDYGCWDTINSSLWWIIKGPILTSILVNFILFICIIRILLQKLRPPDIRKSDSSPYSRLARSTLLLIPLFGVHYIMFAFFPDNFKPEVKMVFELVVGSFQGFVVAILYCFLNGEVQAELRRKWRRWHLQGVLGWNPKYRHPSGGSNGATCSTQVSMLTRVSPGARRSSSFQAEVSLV
# [2] = Rat serum stability (activity remaining, CHO-VPAC2 DiscoveRx read-out); format: in vitro ADME
# Summary of the method: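 Peptides preincubated overnight in rat serum at 37 °C without aprotinin versus 4 °C with aprotinin, then tested as 11-point 5× dilutions in duplicate on CHO-VPAC2 cells, 30 min at RT. cAMP measured by DiscoveRx kit against standards; EC50 derived for each aliquot.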
# human VPAC2 [3] = target: T1, human VPAC2; assay: Alpha screen cAMP assay, in vitro potency at human VPAC2 receptor; format: cell-based; settings: cAMP generation; single result from two analyses in a single run, some values average of more than one experiment
# rat VPAC1 receptor = target: T3, rat VPAC1 receptor (Rattus norvegicus, UniProt P30083); assay: DiscoveRx cAMP assay, in vitro potency at rat VPAC1 receptor; format: cell-based; settings: CHO-PO cells transiently transfected with rat VPAC1; cAMP generation; mean of two independent runs
# T3 construct: expressed in transfected cells; host or cells: CHO-PO (transient, Lipofectamine)
# T3 sequence (P30083 31-459): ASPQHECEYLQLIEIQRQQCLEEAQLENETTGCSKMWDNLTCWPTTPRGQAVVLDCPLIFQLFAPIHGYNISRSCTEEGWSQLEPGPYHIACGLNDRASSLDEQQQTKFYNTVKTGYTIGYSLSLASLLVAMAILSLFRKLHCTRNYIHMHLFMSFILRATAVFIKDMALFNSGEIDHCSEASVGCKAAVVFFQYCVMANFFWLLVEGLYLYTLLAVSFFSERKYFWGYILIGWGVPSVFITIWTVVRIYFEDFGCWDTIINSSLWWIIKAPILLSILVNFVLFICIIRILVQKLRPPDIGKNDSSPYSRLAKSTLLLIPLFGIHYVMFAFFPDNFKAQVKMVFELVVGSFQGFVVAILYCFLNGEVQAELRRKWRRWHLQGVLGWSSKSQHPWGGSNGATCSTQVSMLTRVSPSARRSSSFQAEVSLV
# Experimental: DiscoveRx: CHO-PO cells are transiently transfected with rat VPAC1 or VPAC2 receptor DNA using commercially available transfection reagents (Lipofectamine from Invitrogen). The cells are seeded at a density of 10,000/well in a 96-well plate and are allowed to grow for 3 days in […] culture medium. At day 3, the assay is performed.
# On the day of the experiment, the medium is removed. Also, the cells are washed twice. The cells are incubated in assay buffer plus IBMX for 15 minutes at room temperature. Afterwards, the stimuli are added and are dissolved in assay buffer. The stimuli are present for 30 minutes. Then, the assay buffer is gently removed. The cell lysis reagent of the DiscoveRx cAMP kit is added. Thereafter, the standard protocol for developing the cAMP signal as described by the manufacturer is used (DiscoveRx Inc., USA). EC50 values for cAMP generation are calculated from the raw signal or are based on absolute cAMP levels as determined by a standard curve performed on each plate.
# Results for each agonist are the mean of two independent runs. Rat VPAC1 and VPAC2 results are only generated using the DiscoveRx assay.
# rat VPAC2 receptor = target: T4, rat VPAC2 receptor (Rattus norvegicus, UniProt P35000); assay: DiscoveRx cAMP assay, in vitro potency at rat VPAC2 receptor; format: cell-based; settings: CHO-PO cells transiently transfected with rat VPAC2; cAMP generation; mean of two independent runs
# T4 construct: expressed in transfected cells; host or cells: CHO-PO (transient, Lipofectamine)
# T4 sequence (P35000 23-437): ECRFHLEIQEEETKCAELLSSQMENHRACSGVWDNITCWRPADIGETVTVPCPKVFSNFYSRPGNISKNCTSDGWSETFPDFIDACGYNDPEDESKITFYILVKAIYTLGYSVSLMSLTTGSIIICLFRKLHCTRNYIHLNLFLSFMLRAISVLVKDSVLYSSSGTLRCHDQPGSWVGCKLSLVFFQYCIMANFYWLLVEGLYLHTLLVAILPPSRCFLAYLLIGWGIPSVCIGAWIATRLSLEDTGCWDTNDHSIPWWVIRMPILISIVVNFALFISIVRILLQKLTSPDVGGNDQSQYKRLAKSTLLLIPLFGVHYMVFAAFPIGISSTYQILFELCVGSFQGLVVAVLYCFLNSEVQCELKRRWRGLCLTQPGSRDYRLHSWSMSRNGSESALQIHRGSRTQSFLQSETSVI
# human PAC1 = target: T5, human PAC1 (Homo sapiens, UniProt P41586); assay: Filter binding assay, 125I-labeled PACAP-27 tracer, PAC1 membranes; settings: read-out: Human PAC1 Receptor Binding (IC50; nM)
# T5 construct: expressed in transfected cells
# T5 sequence (P41586 21-468): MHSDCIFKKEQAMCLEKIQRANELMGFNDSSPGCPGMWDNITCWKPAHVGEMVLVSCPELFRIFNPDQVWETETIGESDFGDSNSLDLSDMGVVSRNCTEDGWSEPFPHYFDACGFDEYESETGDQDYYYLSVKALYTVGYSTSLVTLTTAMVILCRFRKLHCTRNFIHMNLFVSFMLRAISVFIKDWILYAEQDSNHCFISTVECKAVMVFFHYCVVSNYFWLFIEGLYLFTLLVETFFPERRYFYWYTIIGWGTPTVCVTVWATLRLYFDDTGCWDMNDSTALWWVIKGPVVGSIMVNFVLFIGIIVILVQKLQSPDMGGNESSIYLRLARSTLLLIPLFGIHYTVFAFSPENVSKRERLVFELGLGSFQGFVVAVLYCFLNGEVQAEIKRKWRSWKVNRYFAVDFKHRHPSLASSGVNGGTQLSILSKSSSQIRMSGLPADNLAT
# Experimental: as §1, §2, §3, §4, §5, §6, §7, §8, §9, §10
# human VPAC2 receptor = target: T6, human VPAC2 receptor (human, UniProt P41587 24-438); assay: cell-based or functional assay
# T6 sequence (looked up): T1 sequence (P41587 24-438)
# human VPAC1 receptor = target: T7, human VPAC1 receptor (human, UniProt P32241 31-457); assay: cell-based or functional assay
# T7 sequence (looked up): T2 sequence (P32241 31-457)
Molecule,IC50 (human VPAC2 [1]),IC50 (human VPAC1),Rat Serum Stability (estimated purity in % after overnight incub.) [2],EC50 (human VPAC2 [3]),EC50 (rat VPAC1 receptor),EC50 (rat VPAC2 receptor),IC50 (human PAC1),"Human VPAC2 Receptor: DiscoveRx (EC50; nM), cAMP generation (human VPAC2 receptor)","Human VPAC1 Receptor: DiscoveRx (EC50; nM), cAMP generation (human VPAC1 receptor)"
CCCCCC(=O)N[C@@H](Cc1c[nH]cn1)C(=O)N[C@@H](CO)C(=O)N[C@@H](CC(=O)O)C(=O)N[C@@H](C)C(=O)N[C@H](C(=O)N[C@@H](Cc1ccccc1)C(=O)N[C@H](C(=O)N[C@@H](CC(=O)O)C(=O)N[C@@H](CC(N)=O)C(=O)N[C@@H](Cc1ccc(O)cc1)C(=O)N[C@H](C(=O)N[C@@H](CCCN)C(=O)N[C@@H](CC(C)C)C(=O)N[C@@H](CCCNC(=N)N)C(=O)NC(C)(C)C(=O)N[C@@H](CCC(N)=O)C(=O)N[C@H](C(=O)N[C@@H](C)C(=O)N[C@@H](C)C(=O)NC(C)(C)C(=O)N[C@@H](CCCCN)C(=O)N[C@@H](Cc1ccc(O)cc1)C(=O)N[C@@H](CC(C)C)C(=O)N[C@@H](CCC(N)=O)C(=O)N[C@@H](CS)C(=O)N[C@H](C(=O)N[C@@H](CCCN)C(=O)N[C@@H](CC(N)=O)C(=O)N[C@@H](CCCN)C(=O)NCC(=O)NCC(=O)N1CCC[C@H]1C(=O)N[C@@H](CO)C(=O)N[C@@H](CO)C(=O)NCC(=O)N[C@@H](C)C(=O)N1CCC[C@H]1C(=O)N1CCC[C@H]1C(=O)N1CCC[C@H]1C(=O)N[C@@H](CO)C(=O)O)[C@@H](C)CC)C(C)C)[C@@H](C)O)[C@@H](C)O)C(C)C [Agonist P372] (Hexanoyl-HSDAVFTDNYT[Orn]LR[Aib]QVAA[Aib]KYLQCI[Orn]N[Orn]GGPSSGAPPPS-OH; C-terminus assumed),4.82 nM,> 3000 nM,13.93%,0.65 nM,1.67 nM,0.18 nM,> 25000 nM,–,–
HSDAVFTDNYTRLRKQVAAKKYLQSIKNKRQGGPSSGAPPPS [VPAC2 receptor peptide agonist P29],–,–,–,–,–,–,–,3.02 nM,18.3 nM
